These results are taken from ChEMBL document CHEMBL1158671, “Microbial transformations of hypolipemic E-guggulsterone” (J Nat Prod, 1998).

Calls of active or inactive are those of the source. The rule behind the calls is not given here.

In one assay the test system is NCI-H226. Briefly: Cytotoxicity against human NCI-H226 cells. The assay is classed as functional, cell-based.
The next assay concerns Shigella boydii. As to the kind of experiment: Antibacterial activity against Shigella boydii. Format: functional, organism-based.
For a further assay, the system named is Pseudomonas aeruginosa. Briefly: Antibacterial activity against Pseudomonas aeruginosa. The assay is classed as functional, organism-based.
The next assay concerns Escherichia coli. Briefly: Antibacterial activity against Escherichia coli. The assay is classed as functional, organism-based.
Assay [1] concerns Corynebacterium diphtheriae. As to the kind of experiment: Antibacterial activity against Corynebacterium diphtheriae. The assay is classed as functional, organism-based.

For `C/C=C1/C(=O)C[C@H]2[C@@H]3CCC4=CC(=O)CC[C@]4(C)[C@H]3CC[C@]12C`, the result in the assay with NCI-H226 was Active. For the same molecule, the result (with Shigella boydii; in the assay with Pseudomonas aeruginosa; in the assay on Escherichia coli; in assay [1]) was inactive.
As for `C/C=C1/C(=O)C[C@H]2[C@@H]3[C@@H](O)CC4=CC(=O)CC[C@]4(C)[C@H]3CC[C@]12C`, the result (in the assay on Shigella boydii; in the assay on Pseudomonas aeruginosa; in the assay with Escherichia coli; in assay [1]) was Active.
